Tests used:
Experiment in all cases: LC-ESI-MS of natively purified enzyme; activity of apo-enzyme restored by FMN
Format in all cases: binding
Settings in all cases: native purification; apo-enzyme assay with 5 uM FMN, pH 7, 35 °C
EF0648 = target: T1, EF0648 (Enterococcus faecalis, UniProt Q838C2)
T1 construct: gene EF_0648; E. coli XL1Blue; about 25 kDa
T1 sequence (Q838C2 2-205): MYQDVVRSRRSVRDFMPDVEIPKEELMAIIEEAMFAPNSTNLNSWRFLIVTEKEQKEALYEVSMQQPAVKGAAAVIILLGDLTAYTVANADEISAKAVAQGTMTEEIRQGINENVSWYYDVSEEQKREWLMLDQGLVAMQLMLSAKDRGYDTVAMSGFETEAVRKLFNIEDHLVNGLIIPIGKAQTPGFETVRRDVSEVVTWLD

EF0655 = target: T2, EF0655 (Enterococcus faecalis, UniProt Q838B7)
T2 construct: gene EF_0655; E. coli XL1Blue; about 22 kDa; forward primer starts after the initiator Met
T2 sequence (Q838B7 2-198): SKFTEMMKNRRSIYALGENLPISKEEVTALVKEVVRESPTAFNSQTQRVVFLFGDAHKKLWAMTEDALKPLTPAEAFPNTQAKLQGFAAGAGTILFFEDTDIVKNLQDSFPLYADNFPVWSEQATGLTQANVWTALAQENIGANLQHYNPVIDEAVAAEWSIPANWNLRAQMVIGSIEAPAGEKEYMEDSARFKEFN

EF0404 = target: T3, EF0404 (Enterococcus faecalis, UniProt Q838N5)
T3 construct: gene EF_0404; E. coli XL1Blue; about 25 kDa; forward primer starts after the initiator Met
T3 sequence (Q838N5 2-211): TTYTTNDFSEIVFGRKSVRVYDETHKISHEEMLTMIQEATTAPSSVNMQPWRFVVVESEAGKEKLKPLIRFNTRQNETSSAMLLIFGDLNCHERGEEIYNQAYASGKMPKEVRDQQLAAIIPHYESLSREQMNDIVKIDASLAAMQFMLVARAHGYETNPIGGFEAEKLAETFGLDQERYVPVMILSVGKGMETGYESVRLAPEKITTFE

AzoA = target: T4, AzoA (Enterococcus faecalis, UniProt Q831B2)
T4 construct: gene azoR; E. coli XL1Blue; about 25 kDa; forward primer starts after the initiator Met
T4 sequence (Q831B2 2-208): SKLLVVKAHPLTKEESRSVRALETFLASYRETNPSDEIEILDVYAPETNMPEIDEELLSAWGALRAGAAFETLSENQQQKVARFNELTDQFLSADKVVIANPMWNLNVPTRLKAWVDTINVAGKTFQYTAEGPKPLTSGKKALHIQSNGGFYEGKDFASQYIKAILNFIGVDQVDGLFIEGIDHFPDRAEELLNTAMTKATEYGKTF

EF1181 = target: T5, EF1181 (Enterococcus faecalis, UniProt Q836D4)
T5 construct: gene EF_1181; E. coli XL1Blue; about 30 kDa; forward primer starts after the initiator Met
T5 sequence (Q836D4 2-244): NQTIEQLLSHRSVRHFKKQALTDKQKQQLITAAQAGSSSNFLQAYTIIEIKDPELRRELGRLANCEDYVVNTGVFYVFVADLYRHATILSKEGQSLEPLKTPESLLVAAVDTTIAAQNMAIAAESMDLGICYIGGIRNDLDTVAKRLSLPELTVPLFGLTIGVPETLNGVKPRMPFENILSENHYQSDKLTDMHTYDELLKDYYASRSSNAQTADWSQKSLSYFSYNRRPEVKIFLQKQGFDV

## Cc1cc2nc3c(=O)[nH]c(=O)nc-3n(C[C@H](O)[C@H](O)[C@H](O)COP(=O)(O)O)c2cc1C [FMN]
EF0648
  LC-ESI-MS of natively purified enzyme; activity of apo-enzyme restored by FMN: confirmed FMN presence for the enzymes purified using native conditions
EF0655
  LC-ESI-MS of natively purified enzyme; activity of apo-enzyme restored by FMN: confirmed FMN presence for the enzymes purified using native conditions
EF0404
  LC-ESI-MS of natively purified enzyme; activity of apo-enzyme restored by FMN: confirmed FMN presence for the enzymes purified using native conditions
AzoA
  LC-ESI-MS of natively purified enzyme; activity of apo-enzyme restored by FMN: confirmed FMN presence for the enzymes purified using native conditions
EF1181
  LC-ESI-MS of natively purified enzyme; activity of apo-enzyme restored by FMN: confirmed FMN presence for the enzymes purified using native conditions

Reference: publication PMC5445473, “Identification of Enterococcus faecalis enzymes with azoreductases and/or nitroreductase activity” (BMC Microbiology, 2017)
